# Biological target: T1, EZH2 (Homo sapiens, UniProt Q15910)
# T1 construct: Protocol of the Cellular Assay of Target Protein Degradation (VCaP Cells, ELISA); endogenous in cells; host or cells: VCaP cells
# Assay: Cellular assay of target protein degradation (VCaP cells, ELISA)
# Assay type: cell-based
# Conditions: 4 hours, protein degradation range at indicated concentration (relative to DMSO control)
# Summary of the method: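 EZH2 level measured by sandwich ELISA (TMB, A450 minus A562 background) in lysates of VCaP cells. Cells had been cultured at least 3 days in 5% CSS RPMI before 4 h compound exposure in 0.1% DMSO.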
# T1 sequence (Q15910 whole entry): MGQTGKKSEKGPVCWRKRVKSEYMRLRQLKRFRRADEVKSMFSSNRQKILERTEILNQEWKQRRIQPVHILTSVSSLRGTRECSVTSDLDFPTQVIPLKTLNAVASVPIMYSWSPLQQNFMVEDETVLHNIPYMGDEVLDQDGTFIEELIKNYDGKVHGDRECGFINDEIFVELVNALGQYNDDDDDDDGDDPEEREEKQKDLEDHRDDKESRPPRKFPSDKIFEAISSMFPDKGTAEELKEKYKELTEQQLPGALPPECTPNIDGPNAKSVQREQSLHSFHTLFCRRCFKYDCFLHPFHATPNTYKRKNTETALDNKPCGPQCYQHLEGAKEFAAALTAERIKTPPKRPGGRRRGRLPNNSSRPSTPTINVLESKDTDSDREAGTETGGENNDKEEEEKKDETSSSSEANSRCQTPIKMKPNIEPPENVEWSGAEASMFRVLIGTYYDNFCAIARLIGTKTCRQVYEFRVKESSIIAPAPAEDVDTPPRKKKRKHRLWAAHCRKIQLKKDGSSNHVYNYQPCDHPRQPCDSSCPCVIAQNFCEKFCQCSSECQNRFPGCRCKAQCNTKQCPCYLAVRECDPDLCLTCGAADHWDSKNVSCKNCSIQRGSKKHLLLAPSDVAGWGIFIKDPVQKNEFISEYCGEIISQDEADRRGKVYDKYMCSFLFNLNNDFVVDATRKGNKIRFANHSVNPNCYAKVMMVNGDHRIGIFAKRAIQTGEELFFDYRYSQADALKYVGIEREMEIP
# T1 sequence (O75530 whole entry partner): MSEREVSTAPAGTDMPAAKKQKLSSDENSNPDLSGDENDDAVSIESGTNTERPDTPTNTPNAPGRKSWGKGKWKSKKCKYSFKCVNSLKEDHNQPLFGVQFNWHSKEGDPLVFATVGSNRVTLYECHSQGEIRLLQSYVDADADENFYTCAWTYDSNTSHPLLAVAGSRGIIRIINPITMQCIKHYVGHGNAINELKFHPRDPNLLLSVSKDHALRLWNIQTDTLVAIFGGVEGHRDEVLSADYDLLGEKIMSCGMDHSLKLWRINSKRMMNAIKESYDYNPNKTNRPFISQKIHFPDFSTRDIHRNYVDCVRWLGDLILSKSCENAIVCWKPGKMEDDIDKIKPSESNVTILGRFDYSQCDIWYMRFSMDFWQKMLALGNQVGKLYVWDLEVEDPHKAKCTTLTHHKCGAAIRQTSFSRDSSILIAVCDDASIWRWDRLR
# T1 sequence (Q15022 whole entry partner): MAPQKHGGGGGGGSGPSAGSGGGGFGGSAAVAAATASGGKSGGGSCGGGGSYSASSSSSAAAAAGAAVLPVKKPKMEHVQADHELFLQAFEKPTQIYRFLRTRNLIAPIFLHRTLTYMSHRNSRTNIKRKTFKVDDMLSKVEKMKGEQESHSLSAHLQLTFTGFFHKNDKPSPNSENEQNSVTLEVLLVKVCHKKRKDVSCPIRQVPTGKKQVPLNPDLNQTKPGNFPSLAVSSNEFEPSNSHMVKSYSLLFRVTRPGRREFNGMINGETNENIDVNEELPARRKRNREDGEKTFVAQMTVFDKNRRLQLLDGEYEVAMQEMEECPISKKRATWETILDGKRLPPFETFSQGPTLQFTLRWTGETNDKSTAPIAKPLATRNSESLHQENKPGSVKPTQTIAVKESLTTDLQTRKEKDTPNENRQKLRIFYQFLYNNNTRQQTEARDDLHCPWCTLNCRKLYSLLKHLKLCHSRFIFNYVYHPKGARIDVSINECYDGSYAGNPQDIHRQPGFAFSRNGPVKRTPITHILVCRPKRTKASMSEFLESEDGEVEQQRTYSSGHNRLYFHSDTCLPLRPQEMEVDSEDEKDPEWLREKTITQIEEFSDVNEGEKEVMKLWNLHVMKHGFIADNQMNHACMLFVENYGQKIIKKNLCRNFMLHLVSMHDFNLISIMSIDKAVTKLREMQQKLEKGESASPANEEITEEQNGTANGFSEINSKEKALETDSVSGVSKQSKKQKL
row,Structure (SMILES),percent target protein degradation class
1,"CCN(c1cc(-c2ccc(OCCOCCOCCOCCOCCOCC(=O)N[C@H](C(=O)N3C[C@H](O)C[C@H]3C(=O)NCc3ccc(-c4scnc4C)cc3)C(C)(C)C)cc2)cc(C(=O)NCc2c(C)cc(C)[nH]c2=O)c1C)C1CCOCC1 [Compound 15, (2S,4R)-1-[(2S)-2-{1-[4-(3-{[(4,6-dimethyl-2-oxo-1,2-dihydropyridin-3-yl)methyl]carbamoyl}-5-[ethyl(oxan-4-yl)amino]-4-methylphenyl)phenyl]-1,4,7,10,13,16-hexaoxaoctadecan-18-amido}-3,3-dimethylbutanoyl]-4-hydroxy-N-{[4-(4-methyl-1,3-thiazol-5-yl)phenyl]methyl}pyrrolidine-2-carboxamide]",B (B = degradation between 30% and 60%)
2,"CCN(c1cc(-c2ccc(CN3CCN(CCCCOCC(=O)N[C@H](C(=O)N4C[C@H](O)C[C@H]4C(=O)N[C@@H](C)c4ccc(-c5scnc5C)cc4)C(C)(C)C)CC3)cc2)cc(C(=O)NCc2c(C)cc(C)[nH]c2=O)c1C)C1CCOCC1 [Compound 117, (2S,4R)-1-((S)-2-(2-(4-(4-((3′-(((4,6-dimethyl-2-oxo-1,2-dihydropyridin-3-yl)methyl)carbamoyl)-5′-(ethyl(tetrahydro-2H-pyran-4-yl)amino)-4′-methyl-[1,1′-biphenyl]-4-yl)methyl)piperazin-1-yl)butoxy)acetamido)-3,3-dimethylbutanoyl)-4-hydroxy-N-((S)-1-(4-(4-methylthiazol-5-yl)phenyl)ethyl)pyrrolidine-2-carboxamide]",A (A = degradation more than 60%)
